Test results published in PubChem BioAssay (NCI).
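Where inhibition never reached the appropriate level, the endpoint shown equals the highest concentration tested. Otherwise, values were interpolated linearly from a five-concentration, 48-hour dose response in 96-well plates. GI50 = concentration required for 50% inhibition of growth. The concentration for full growth arrest is given as TGI.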

Key:
Assay in all cases: inhibition of tumour cell growth, NCI panel, 48 h
HCC-2998 colon = tested on: HCC-2998 colon
HL-60(TB) leukemia = tested on: HL-60(TB) leukemia
TK-10 renal = tested on: TK-10 renal
EKVX NSCLC = tested on: EKVX NSCLC
K-562 leukemia = tested on: K-562 leukemia
KM12 colon = tested on: KM12 colon
SK-MEL-28 melanoma = tested on: SK-MEL-28 melanoma
LOX IMVI melanoma = tested on: LOX IMVI melanoma
OVCAR-8 ovarian = tested on: OVCAR-8 ovarian
DLD-1 colon = tested on: DLD-1 colon
SN12C renal = tested on: SN12C renal
SF-268 CNS = tested on: SF-268 CNS
SF-539 CNS = tested on: SF-539 CNS
LXFL 529 NSCLC = tested on: LXFL 529 NSCLC
CCRF-CEM leukemia = tested on: CCRF-CEM leukemia
SK-OV-3 ovarian = tested on: SK-OV-3 ovarian
NCI-H23 lung = tested on: NCI-H23 lung
DMS 114 small cell lung = tested on: DMS 114 small cell lung
SF-295 CNS = tested on: SF-295 CNS
HOP-18 NSCLC = tested on: HOP-18 NSCLC
UACC-257 melanoma = tested on: UACC-257 melanoma
SNB-78 CNS = tested on: SNB-78 CNS
KM20L2 colon = tested on: KM20L2 colon
SW-620 colon = tested on: SW-620 colon
NCI-H226 lung = tested on: NCI-H226 lung
RXF 393 renal = tested on: RXF 393 renal
M19-MEL melanoma = tested on: M19-MEL melanoma
HOP-92 NSCLC = tested on: HOP-92 NSCLC
OVCAR-5 ovarian = tested on: OVCAR-5 ovarian
RXF-631 renal = tested on: RXF-631 renal
CAKI-1 renal = tested on: CAKI-1 renal
HT29 colon = tested on: HT29 colon
SR leukemia = tested on: SR leukemia
UO-31 renal = tested on: UO-31 renal
SK-MEL-5 melanoma = tested on: SK-MEL-5 melanoma
A549 NSCLC = tested on: A549 NSCLC
IGROV1 ovarian = tested on: IGROV1 ovarian
OVCAR-3 ovarian = tested on: OVCAR-3 ovarian
786-0 renal = tested on: 786-0 renal
ACHN renal = tested on: ACHN renal
MOLT-4 leukemia = tested on: MOLT-4 leukemia
NCI-H522 lung = tested on: NCI-H522 lung
UACC-62 melanoma = tested on: UACC-62 melanoma
SNB-19 CNS = tested on: SNB-19 CNS
OVCAR-4 ovarian = tested on: OVCAR-4 ovarian
MALME-3M melanoma = tested on: MALME-3M melanoma
SK-MEL-2 melanoma = tested on: SK-MEL-2 melanoma
RPMI-8226 leukemia = tested on: RPMI-8226 leukemia
NCI-H460 lung = tested on: NCI-H460 lung
M14 melanoma = tested on: M14 melanoma
XF 498 CNS = tested on: XF 498 CNS
HOP-62 NSCLC = tested on: HOP-62 NSCLC
HCT-15 colon = tested on: HCT-15 colon
HCT-116 colon = tested on: HCT-116 colon
U251 CNS = tested on: U251 CNS
COLO 205 colon = tested on: COLO 205 colon
SNB-75 CNS = tested on: SNB-75 CNS

SMILES: COC(=O)C(=O)C(CC(=O)Nc1c(C)cccc1C)C(=O)OC (stereo not drawn)
- TGI (HCC-2998 colon): > 100 µM
- TGI (HL-60(TB) leukemia): > 100 µM
- TGI (TK-10 renal): > 100 µM
- TGI (EKVX NSCLC): > 100 µM
- TGI (K-562 leukemia): > 100 µM
- TGI (KM12 colon): > 100 µM
- TGI (SK-MEL-28 melanoma): > 100 µM
- TGI (LOX IMVI melanoma): > 100 µM
- TGI (OVCAR-8 ovarian): > 100 µM
- TGI (DLD-1 colon): > 100 µM
- TGI (SN12C renal): > 100 µM
- TGI (SF-268 CNS): > 100 µM
- TGI (SF-539 CNS): > 100 µM
- TGI (LXFL 529 NSCLC): > 100 µM
- TGI (CCRF-CEM leukemia): > 100 µM
- TGI (SK-OV-3 ovarian): > 100 µM
- TGI (NCI-H23 lung): > 100 µM
- TGI (DMS 114 small cell lung): > 100 µM
- TGI (SF-295 CNS): > 100 µM
- TGI (HOP-18 NSCLC): > 100 µM
- TGI (UACC-257 melanoma): > 100 µM
- TGI (SNB-78 CNS): > 100 µM
- TGI (KM20L2 colon): > 100 µM
- TGI (SW-620 colon): > 100 µM
- TGI (NCI-H226 lung): > 100 µM
- TGI (RXF 393 renal): > 100 µM
- TGI (M19-MEL melanoma): > 100 µM
- TGI (HOP-92 NSCLC): > 100 µM
- TGI (OVCAR-5 ovarian): > 100 µM
- TGI (RXF-631 renal): > 100 µM
- TGI (CAKI-1 renal): > 100 µM
- TGI (HT29 colon): > 100 µM
- TGI (SR leukemia): > 100 µM
- TGI (UO-31 renal): > 100 µM
- TGI (SK-MEL-5 melanoma): > 100 µM
- TGI (A549 NSCLC): > 100 µM
- TGI (IGROV1 ovarian): > 100 µM
- TGI (OVCAR-3 ovarian): > 100 µM
- TGI (786-0 renal): > 100 µM
- TGI (ACHN renal): > 100 µM
- TGI (MOLT-4 leukemia): > 100 µM
- TGI (NCI-H522 lung): > 100 µM
- TGI (UACC-62 melanoma): > 100 µM
- TGI (SNB-19 CNS): > 100 µM
- TGI (OVCAR-4 ovarian): > 100 µM
- TGI (MALME-3M melanoma): > 100 µM
- TGI (SK-MEL-2 melanoma): > 100 µM
- TGI (RPMI-8226 leukemia): > 100 µM
- TGI (NCI-H460 lung): > 100 µM
- TGI (M14 melanoma): > 100 µM
- TGI (XF 498 CNS): > 100 µM
- TGI (HOP-62 NSCLC): > 100 µM
- TGI (HCT-15 colon): > 100 µM
- TGI (HCT-116 colon): > 100 µM
- TGI (U251 CNS): > 100 µM

SMILES: CC[O-].CC[O-].CN(C)c1ccc([O-])cc1.CN(C)c1ccc([O-])cc1.[Ti+4]
- GI50 (HCC-2998 colon): 53.6 µM
- TGI (HCC-2998 colon): > 100 µM
- GI50 (HL-60(TB) leukemia): 46.4 µM
- TGI (HL-60(TB) leukemia): > 100 µM
- GI50 (TK-10 renal): > 100 µM
- TGI (TK-10 renal): > 100 µM
- GI50 (EKVX NSCLC): > 100 µM
- TGI (EKVX NSCLC): > 100 µM
- GI50 (K-562 leukemia): 29.1 µM
- TGI (K-562 leukemia): > 100 µM
- GI50 (KM12 colon): 29.3 µM
- TGI (KM12 colon): > 100 µM
- GI50 (SK-MEL-28 melanoma): > 100 µM
- TGI (SK-MEL-28 melanoma): > 100 µM
- GI50 (LOX IMVI melanoma): 38.6 µM
- TGI (LOX IMVI melanoma): > 100 µM
- GI50 (OVCAR-8 ovarian): 36.8 µM
- TGI (OVCAR-8 ovarian): > 100 µM
- GI50 (DLD-1 colon): 61.4 µM
- TGI (DLD-1 colon): > 100 µM
- GI50 (SF-268 CNS): 36.4 µM
- TGI (SF-268 CNS): > 100 µM
- GI50 (SF-539 CNS): 30.8 µM
- TGI (SF-539 CNS): > 100 µM
- GI50 (COLO 205 colon): 58.4 µM
- TGI (COLO 205 colon): > 100 µM
- GI50 (LXFL 529 NSCLC): 68.2 µM
- TGI (LXFL 529 NSCLC): > 100 µM
- GI50 (CCRF-CEM leukemia): 36.4 µM
- TGI (CCRF-CEM leukemia): > 100 µM
- GI50 (SK-OV-3 ovarian): > 100 µM
- TGI (SK-OV-3 ovarian): > 100 µM
- GI50 (NCI-H23 lung): 70.6 µM
- TGI (NCI-H23 lung): > 100 µM
- GI50 (DMS 114 small cell lung): 35 µM
- TGI (DMS 114 small cell lung): > 100 µM
- GI50 (SF-295 CNS): 48.7 µM
- TGI (SF-295 CNS): > 100 µM
- GI50 (HOP-18 NSCLC): > 100 µM
- TGI (HOP-18 NSCLC): > 100 µM
- GI50 (UACC-257 melanoma): 28.7 µM
- TGI (UACC-257 melanoma): > 100 µM
- GI50 (SNB-78 CNS): > 100 µM
- TGI (SNB-78 CNS): > 100 µM
- GI50 (KM20L2 colon): 61.7 µM
- TGI (KM20L2 colon): > 100 µM
- GI50 (SW-620 colon): 70.5 µM
- TGI (SW-620 colon): > 100 µM
- GI50 (NCI-H226 lung): > 100 µM
- TGI (NCI-H226 lung): > 100 µM
- GI50 (M19-MEL melanoma): 39.3 µM
- TGI (M19-MEL melanoma): > 100 µM
- GI50 (OVCAR-5 ovarian): > 100 µM
- TGI (OVCAR-5 ovarian): > 100 µM
- GI50 (RXF-631 renal): 66.1 µM
- TGI (RXF-631 renal): > 100 µM
- GI50 (CAKI-1 renal): > 100 µM
- TGI (CAKI-1 renal): > 100 µM
- GI50 (HT29 colon): 21.3 µM
- TGI (HT29 colon): 49.5 µM
- GI50 (SR leukemia): 72.2 µM
- TGI (SR leukemia): > 100 µM
- GI50 (SNB-75 CNS): > 100 µM
- TGI (SNB-75 CNS): > 100 µM
- GI50 (UO-31 renal): > 100 µM
- TGI (UO-31 renal): > 100 µM
- GI50 (SK-MEL-5 melanoma): 99.8 µM
- TGI (SK-MEL-5 melanoma): > 100 µM
- GI50 (A549 NSCLC): 54.4 µM
- TGI (A549 NSCLC): > 100 µM
- GI50 (IGROV1 ovarian): > 100 µM
- TGI (IGROV1 ovarian): > 100 µM
- GI50 (OVCAR-3 ovarian): 56.1 µM
- TGI (OVCAR-3 ovarian): > 100 µM
- GI50 (786-0 renal): 32 µM
- TGI (786-0 renal): > 100 µM
- GI50 (ACHN renal): 40.9 µM
- TGI (ACHN renal): > 100 µM
- GI50 (MOLT-4 leukemia): 32.4 µM
- TGI (MOLT-4 leukemia): > 100 µM
- GI50 (NCI-H522 lung): 52.3 µM
- TGI (NCI-H522 lung): > 100 µM
- GI50 (UACC-62 melanoma): > 100 µM
- TGI (UACC-62 melanoma): > 100 µM
- GI50 (SNB-19 CNS): > 100 µM
- TGI (SNB-19 CNS): > 100 µM
- GI50 (OVCAR-4 ovarian): > 100 µM
- TGI (OVCAR-4 ovarian): > 100 µM
- GI50 (MALME-3M melanoma): 82.9 µM
- TGI (MALME-3M melanoma): > 100 µM
- GI50 (SK-MEL-2 melanoma): > 100 µM
- TGI (SK-MEL-2 melanoma): > 100 µM
- GI50 (RPMI-8226 leukemia): 95.7 µM
- TGI (RPMI-8226 leukemia): > 100 µM
- GI50 (NCI-H460 lung): 27.7 µM
- TGI (NCI-H460 lung): 75 µM
- GI50 (M14 melanoma): 98.4 µM
- TGI (M14 melanoma): > 100 µM
- GI50 (XF 498 CNS): > 100 µM
- TGI (XF 498 CNS): > 100 µM
- GI50 (HOP-62 NSCLC): > 100 µM
- TGI (HOP-62 NSCLC): > 100 µM
- GI50 (HCT-15 colon): 61.4 µM
- TGI (HCT-15 colon): > 100 µM
- GI50 (HCT-116 colon): 52.5 µM
- TGI (HCT-116 colon): > 100 µM
- GI50 (U251 CNS): 39 µM
- TGI (U251 CNS): > 100 µM
